Like-named read-outs stand apart in the source and are kept apart here.
What was measured:
[1] = literature reports; cited from earlier work
[2] = tested on: human liver microsomal (HL-mix-13)
[3] = tested on: human liver microsomal (HL-mix-13); conditions: 10 μM substrate, 1 mM GSH, 0.5 μM P450, NADPH generating system, HPLC/SRM

Row | Molecule | Response observed using GSH-EE as trapping agent [2] | other results
1 | CC(=O)Nc1ccc(O)cc1 [Acetaminophen] | – | formation of reactive species / reactive intermediates as reported [1]: have been reported to produce such species
2 | CCN(CC)Cc1cc(Nc2ccnc3cc(Cl)ccc23)ccc1O [Amodiaquine] | Yes | –
3 | NC(=O)N1c2ccccc2C=Cc2ccccc21 [Carbamazepine] | Yes | –
4 | O=C(O)Cc1ccccc1Nc1c(Cl)cccc1Cl [Diclofenac] | Yes | –
5 | COc1ccc2c(c1)c(CC(=O)O)c(C)n2C(=O)c1ccc(Cl)cc1 [Indomethacin] | No | –
6 | CN(CCOc1ccc(CC2SC(=O)NC2=O)cc1)c1ccccn1 (stereo not drawn) [Rosiglitazone] | Yes | –
7 | CC(=O)Oc1ccccc1C(=O)O [aspirin] | – | formation of reactive species / reactive intermediates as reported [1]: have not been reported to produce such reactive species
8 | Felbamate | – | Response observed using GSH as trapping agent [3]: No (A response in the assay was deemed “no” if the signal to noise ratio was <10); Response observed using GSH-EE as trapping agent ([2]; 10 μM substrate, 1 mM GSH-EE, 0.5 μM P450, NADPH generating system, HPLC/SRM): Yes (A response in the assay was deemed “yes” if there were no co-eluting species contained in control (blank) samples and analyte peak to signal ratio was >10)

Source: patent US20040248234A1, “Sensitive and selective in vitro assay for the detection of reactive drug intermediates” (Pfizer Inc, priority 2003, published 2004)
